In patent publication US9963464B2, “Macrocyclic compounds” (Bayer Pharma Aktiengesellschaft, priority 2014, dated 2018):

Experiments:
CDK9/CycT1 = molecular target: T1, CDK9/CycT1 (Homo sapiens, UniProt P50750); assay: CDK9/CycT1 high ATP kinase assay (TR-FRET, Method 1b); type: biochemical; conditions: for IC50: Method 1b, 2 mM ATP; for Selectivity high ATP CDK9 over high ATP CDK2: IC50 (high ATP CDK2)/IC50 (high ATP CDK9): Methods 1b and 2b, minimal values where CDK9 IC50 is at the assay limit
T1 construct: Recombinant full-length His-tagged human CDK9 and CycT1; His; purchased Invitrogen PV4131; host or cells: insect cells
Description: 1b. CDK9/CycT1 High ATP Kinase Assay
CDK9/CycT1-inhibitory activity of compounds of the present invention at a high ATP concentration after preincubation of enzyme and test compounds was quantified employing the CDK9/CycT1 TR-FRET assay as described in the following paragraphs.
Recombinant full-length His-tagged human CDK9 and CycT1, expressed in insect cells and purified by Ni-NTA affinity chromatography, were purchase from Invitrogen (Cat. No PV4131). As substrate for the kinase reaction biotinylated peptide biotin-Ttds-YISPLKSPYKISEG (C-terminus in amid form) was used which can be purchased e.g. from the company JERINI peptide technologies (Berlin, Germany). For the assay 50 nl of a 100 fold concentrated solution of the test compound in DMSO was pipetted into a black low volume 384 well microtiter plate (Greiner Bio-One, Frickenhausen, Germany), 2 μl of a solution of CDK9/CycT1 in aqueous assay buffer [50 mM Tris/HCl pH 8.0, 10 mM MgCl2, 1.0 mM dithiothreitol, 0.1 mM sodium ortho-vanadate, 0.01% (v/v) Nonidet-P40 (Sigma)] were added and the mixture was incubated for 15 min at 22° C. to allow pre-binding of the test compounds to the enzyme before the start of the kinase reaction. […] The concentration of CDK9/CycT1 was adjusted depending of the activity of the enzyme lot and was chosen appropriate to have the assay in the linear range, typical concentrations were in the range of 0.5 μg/mL. The reaction was stopped by the addition of 5 μl of a solution of TR-FRET detection reagents (0.2 μM streptavidine-XL665 [Cisbio Bioassays, Codolet, France] and 1 nM anti-RB(pSer807/pSer811)-antibody from BD Pharmingen [#558389] and 1.2 nM LANCE EU-W1024 labeled anti-mouse IgG antibody [Perkin-Elmer, product no. AD0077]) in an aqueous EDTA-solution (100 mM EDTA, 0.2% (w/v) bovine serum albumin in 100 mM HEPES pH 7.5).
The resulting mixture was incubated 1 h at 22° C. to allow the formation of complex between the phosphorylated biotinylated peptide and the detection reagents. Subsequently the amount of phosphorylated substrate was evaluated by measurement of the resonance energy transfer from the Eu-chelate to the streptavidine-XL. Therefore, the fluorescence emissions at 620 nm and 665 nm after excitation at 350 nm was measured in a HTRF reader, e.g. a Rubystar (BMG Labtechnologies, Offenburg, Germany) or a Viewlux (Perkin-Elmer). The ratio of the emissions at 665 nm and at […] was taken as the measure for the amount of phosphorylated substrate. The data were normalised (enzyme reaction without inhibitor=0% inhibition, all other assay components but no enzyme=100% inhibition).

DU145 cells = assay: Proliferation assay DU145; type: cell-based, human; conditions: Homo sapiens, DU-145, 96 h, 4 days, crystal violet; read-out: Inhibition of DU145 cell proliferation IC50
Description: (§1) Cultivated tumour cells (HeLa, human cervical tumour cells, ATCC CCL-2; NCI-H460, human non-small cell lung carcinoma cells, ATCC HTB-177; A2780, human ovarian carcinoma cells, ECACC #93112519; DU 145, hormone-independent human prostate carcinoma cells, ATCC HTB-81; HeLa-MaTu-ADR, multidrug-resistant human cervical carcinoma cells, EPO-GmbH Berlin; Caco-2, human colorectal carcinoma cells, ATCC HTB-37; B16F10, mouse melanoma cells, ATCC CRL-6475) were plated at a density of 5,000 cells/well (DU145, HeLa-MaTu-ADR), 3,000 cells/well (NCI-H460, HeLa), 2,500 cells/well (A2780), 1,500 cells/well (Caco-2), or 1,000 cells/well (B16F10) in a 96-well multititer plate in 200 μL of their respective growth medium supplemented 10% fetal calf serum. After 24 hours, the cells of one plate (zero-point plate) were stained with crystal violet (see below), while the medium of the other plates was replaced by fresh culture medium (200 μl), to which the test substances were added in various concentrations (0 μM, as well as in the range of 0.001-10 μM). The cells were incubated for 4 days in the presence of test substances. Cell proliferation was determined by staining the cells with crystal violet: the cells were fixed by adding 20 μl/measuring point of an 11% glutaric aldehyde solution for 15 minutes at room temperature. After three washing cycles of the fixed cells with water, the plates were dried at room temperature. The cells were stained by adding 100 μl/measuring point of a 0.1% crystal violet solution (pH 3.0). After three washing cycles of the stained cells with water, the plates were dried at room temperature. The dye was dissolved by adding 100 μl/measuring point of a 10% acetic acid solution. The extinction was determined by photometry at a wavelength of 595 nm. The change of cell number, in percent, was calculated by normalization of the measured values to the extinction values of the zero-point plate (=0%) and the extinction of the untreated (0 μm) cells (=100%). The IC50 values (inhibitory concentration at 50% of maximal effect) were determined by means of a 4 parameter fit. Non-adherent MOLM-13 human acute myeloid leukemia cells (DSMZ ACC 554) were seeded at a density of 5,000 cells/well in a 96-well multititer plate in 100 μL of growth medium supplemented 10% fetal calf serum. After 24 hours, cell viability of one plate (zero-point plate) was determined with the Cell Titre-Glo Luminescent Cell Viability Assay (Promega), while 50 μL of test compound containing medium was added to the wells of the other plates (final concentrations in the range of 0.001-1 μM and DMSO controls). Cell viability was assessed after 72-hour exposure with the Cell Titre-Glo Luminescent Cell Viability Assay (Promega). IC50 values (inhibitory concentration at 50% of maximal effect) were determined by means of a 4 parameter fit on measurement data which were normalized to vehicle (DMSO) treated cells (=100%) and measurement readings taken immediately before compound exposure (=0%).

Caco-2 cells = assay: Proliferation assay Caco-2; type: cell-based, human; conditions: Homo sapiens, Caco-2, 96 h, 4 days, crystal violet; read-out: Inhibition of Caco-2 cell proliferation IC50
Description: as §1

NCI-H460 cells = assay: Proliferation assay NCI-H460; type: cell-based, human; conditions: Homo sapiens, NCI-H460, 96 h, 4 days, crystal violet; read-out: Inhibition of NCI-H460 cell proliferation IC50
Description: as §1

T1 sequence (P50750 whole entry): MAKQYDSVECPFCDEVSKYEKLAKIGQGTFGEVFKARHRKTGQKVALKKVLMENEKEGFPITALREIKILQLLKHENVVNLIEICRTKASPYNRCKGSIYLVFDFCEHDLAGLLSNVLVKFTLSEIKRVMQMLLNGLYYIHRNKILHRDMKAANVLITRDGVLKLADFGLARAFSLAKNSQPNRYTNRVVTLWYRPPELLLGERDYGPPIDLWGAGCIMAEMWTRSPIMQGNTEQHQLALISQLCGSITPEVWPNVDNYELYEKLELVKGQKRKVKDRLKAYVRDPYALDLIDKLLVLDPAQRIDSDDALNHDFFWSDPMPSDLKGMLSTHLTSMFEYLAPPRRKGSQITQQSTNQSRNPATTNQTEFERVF
T1 sequence (O60563 whole entry partner): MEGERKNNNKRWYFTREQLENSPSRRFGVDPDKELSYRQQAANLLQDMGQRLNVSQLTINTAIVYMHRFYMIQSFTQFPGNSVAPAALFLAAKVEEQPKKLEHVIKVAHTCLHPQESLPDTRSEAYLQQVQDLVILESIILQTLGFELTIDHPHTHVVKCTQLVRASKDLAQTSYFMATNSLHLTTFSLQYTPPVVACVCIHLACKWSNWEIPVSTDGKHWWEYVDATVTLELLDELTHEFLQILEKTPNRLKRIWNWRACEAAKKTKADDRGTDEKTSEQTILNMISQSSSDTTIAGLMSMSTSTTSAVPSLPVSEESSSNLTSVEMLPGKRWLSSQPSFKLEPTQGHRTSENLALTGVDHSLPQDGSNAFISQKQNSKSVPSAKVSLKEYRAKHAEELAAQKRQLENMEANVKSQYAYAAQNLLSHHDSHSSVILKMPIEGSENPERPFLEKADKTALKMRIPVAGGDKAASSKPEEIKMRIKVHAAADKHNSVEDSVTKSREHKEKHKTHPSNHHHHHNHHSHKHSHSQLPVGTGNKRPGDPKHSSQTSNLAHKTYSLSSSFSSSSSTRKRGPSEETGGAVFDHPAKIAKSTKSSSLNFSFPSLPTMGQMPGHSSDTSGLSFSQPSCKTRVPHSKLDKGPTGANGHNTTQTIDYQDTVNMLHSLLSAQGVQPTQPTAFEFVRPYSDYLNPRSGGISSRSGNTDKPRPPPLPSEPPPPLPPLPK

IC50 (CDK9/CycT1) | Selectivity high ATP CDK9 over high ATP CDK2: IC50 (high ATP CDK2)/IC50 (high ATP CDK9) (CDK9/CycT1) | IC50 (DU145 cells) | IC50 (Caco-2 cells) | IC50 (NCI-H460 cells) | SMILES
1.7 nM | 125.3 | 10 nM | 9 nM | 20 nM | CS(=N)(=O)Cc1cc2cc(c1)OCCCCOc1cc(F)ccc1-c1nc(ncc1F)N2 (racemic) [Example 1, (rac)-16,20-Difluoro-9-[(S-methylsulfonimidoyl)methyl]-2,3,4,5-tetrahydro-12H-13,17-(azeno)-11,7-(metheno)-1,6,12,14-benzodioxadiazacyclononadecine]
1.6 nM | 19.6 | 11 nM | 10 nM | 12 nM | C[S+]([O-])Cc1cc2nc(c1)OCCCOc1cc(F)ccc1-c1cc(ncc1F)N2 (racemic) [Example 4, (rac)-15,19-Difluoro-8-[(methylsulfinyl)methyl]-3,4-dihydro-2H,11H-10,6-(azeno)-12,16-(metheno)-1,5,11,13-benzodioxadiazacyclooctadecine]
0.98 nM | 20.8 | 4 nM | 4 nM | 6 nM | CS(=N)(=O)Cc1cc2nc(c1)OCCCOc1cc(F)ccc1-c1cc(ncc1F)N2 (racemic) [Example 5, (rac)-15,19-Difluoro-8-[(S-methylsulfonimidoyl)methyl]-3,4-dihydro-2H,11H-10,6-(azeno)-12,16-(metheno)-1,5,11,13-benzodioxadiazacyclooctadecine]
27.8 nM | 125.7 | 324 nM | 584 nM | 393 nM | C[S+]([O-])Cc1cc2nc(c1)OCCOc1cc(F)ccc1-c1cc(ncc1F)N2 (racemic) [Example 10, (rac)-14,18-difluoro-7-[(methylsulfinyl)methyl]-2,3-dihydro-10H-9,5-(azeno)-11,15-(metheno)-1,4,10,12-benzodioxadiazacycloheptadecine]
3 nM | 702 | 159 nM | 158 nM | 186 nM | CS(=N)(=O)Cc1cc2nc(c1)OCCOc1cc(F)ccc1-c1cc(ncc1F)N2 (racemic) [Example 11, (rac)-14,18-difluoro-7-[(S-methylsulfonimidoyl)methyl]-2,3-dihydro-10H-9,5-(azeno)-11,15-(metheno)-1,4,10,12-benzodioxadiazacycloheptadecine]
3.2 nM | 35.3 | 30 nM | 22 nM | 33 nM | C[S+]([O-])Cc1cc2nc(c1)OCCCCOc1cc(F)ccc1-c1cc(ncc1F)N2 (racemic) [Example 13, (rac)-16,20-difluoro-9-[(methylsulfinyl)methyl]-2,3,4,5-tetrahydro-12H-11,7-(azeno)-13,17-(metheno)-1,6,12,14-benzodioxadiazacyclononadecine]
3.6 nM | 45.3 | 16 nM | 13 nM | 19 nM | CS(=N)(=O)Cc1cc2nc(c1)OCCCCOc1cc(F)ccc1-c1cc(ncc1F)N2 (racemic) [Example 14, (rac)-16,20-difluoro-9-[(S-methylsulfonimidoyl)methyl]-2,3,4,5-tetrahydro-12H-11,7-(azeno)-13,17-(metheno)-1,6,12,14-benzodioxadiazacyclononadecine]
1.9 nM | 123.6 | 17 nM | 17 nM | 30 nM | CS(=N)(=O)Cc1cc2cc(c1)OCCCOc1cc(F)ccc1-c1nc(ncc1F)N2 (racemic) [Example 15, (rac)-15,19-difluoro-8-[(S-methylsulfonimidoyl)methyl]-3,4-dihydro-2H,11H-12,16-(azeno)-10,6-(metheno)-1,5,11,13-benzodioxadiazacyclooctadecine]
3.9 nM | 172 | 17 nM | 15 nM | 26 nM | CS(=O)(Cc1cc2cc(c1)OCCCOc1cc(F)ccc1-c1nc(ncc1F)N2)=NC(=O)C(F)(F)F (racemic) [Example 16, (rac)-N-[{[15,19-difluoro-3,4-dihydro-2H,11H-12,16-(azeno)-10,6-(metheno)-1,5,11,13-benzodioxadiazacyclooctadecin-8-yl]methyl}(methyl)oxido-λ^6-sulfanylidene]-2,2,2-trifluoroacetamide]
2.7 nM | 13.5 | 36 nM | 21 nM | 31 nM | CCNC(=O)N=S(C)(=O)Cc1cc2nc(c1)OCCCOc1cc(F)ccc1-c1cc(ncc1F)N2 (racemic) [Example 17, (rac)-1-[{[15,19-difluoro-3,4-dihydro-2H,11H-10,6-(azeno)-12,16-(metheno)-1,5,11,13-benzodioxadiazacyclooctadecin-8-yl]methyl}(methyl)oxido-λ^6-sulfanylidene]-3-ethylurea]
65 nM | >307 | – | 811 nM | – | CSCc1cc2nc(c1)OCCOc1cc(F)ccc1-c1cc(ncc1F)N2 [Example 9, 14,18-Difluoro-7-[(methylsulfanyl)methyl]-2,3-dihydro-10H-9,5-(azeno)-11,15-(metheno)-1,4,10,12-benzodioxadiazacycloheptadecine]
